What all share (assay): In vitro percent disease control (radii of spore growth on agar)
Holding throughout (type): cell-based

The subject of one data set is Alternaria mali. The conditions noted are these: Alternaria mali, read-out: % controlled, Al. On the procedure: (§1) The compounds of this invention were dissolved respectively in acetone in an amount equal to 10% of the final volume and then in purified water at the concentration of 100 ppm and 50 ppm.
(§2) Each of the solution was mixed with potato-sucrose-agar medium in a 6" petri dish and one of the fungi was spotted at the center of the dish. The dish was incubated in growth room for several days. The percent disease control was derived from the radii of spore growth. The screening tests in vitro condition are well-known to those skilled in the art.
(§3) The following fungi were used for the screening.

Another data set relates to Rhizopus sp. The conditions noted are these: Rhizopus, read-out: % controlled, Rhi. sp. On the procedure:
as §1, §2, §3

In a further data set the test system is Phytophthora capsisi. To be noted: Phytophthora, read-out: % controlled, Phy ca. On the procedure: as §1, §2, §3
2) Phy. ca.; Phytophthora capsisi

Another data set has as its system Physalospora baccae. To be noted: read-out: % controlled, Phy ba. The protocol:
as §1, §2, §3
3) Phy. ba.; Physalospora baccae

Data set [1] relates to Botryosphaeria dothidea Macrophoma sp. The conditions noted are these: Botryosphaeria dothidea, read-out: % controlled, Bo.do (Ma.). On the procedure:
as §1, §2, §3
4) Bo.do(Ma); Botryosphaeria dothidea Macrophoma sp.

For another data set, the system named is Glomerella cingulata. The conditions noted are these: Colletotrichum gloeosporioides, read-out: % controlled, Glo. The protocol: as §1, §2, §3
5) Glo.; Glomerella cingulata

Another data set concerns Pyricalaria oryzae. To be noted: for inhibition of growth at 50 ppm: read-out: % controlled, Py. or., 50 ppm; for inhibition of growth at 100 ppm: read-out: % controlled, Py. or., 100 ppm. The protocol: as §1, §2, §3
6) Py.or.; Pyricalaria oryzae

In the next data set the test system is Rhizoctonia solani. To be noted: Rhizoctonia solani, read-out: % controlled, Rhy. so. The protocol: as §1, §2, §3
7) Rhi.so.; Rhizoctonia solani

For another data set, the system named is Fusarium moniliforme. The protocol: as §1, §2, §3
8) Fu.mo.; Fusarium moniliforme

A further data set relates to Botry tris cinerea. To be noted: read-out: % controlled, Bo ci. On the procedure: as §1, §2, §3
10) Bo.ci.; Botry tris cinerea

The record followed here is patent US5235061A, “Fungicidal (1H-1,2,4-triazolyl)disilaalkanes” (priority 1991, dated 1993).

With `C[Si](C)(C)C[Si](Cn1cncn1)(c1ccc(Cl)cc1)c1ccc(Cl)cc1` [2,2-bis(4-chlorophenyl)-4,4-dimethyl-2,4-disila-1-(1H-1,2,4-triazol-1-yl)pentane], the inhibition of growth at 50 ppm came out at 75% in the data set with Alternaria mali; 51% in the data set on Rhizopus sp.; 28% in the data set on Phytophthora capsisi; 90% with Physalospora baccae; 70% in data set [1]; 83% with Glomerella cingulata. The inhibition of growth at 50 ppm in the data set with Pyricalaria oryzae was 90%; with Rhizoctonia solani it was 56%; in the data set with Botry tris cinerea, 67%. The inhibition of growth at 100 ppm in the data set with Alternaria mali turned out to be 79%; with Rhizopus sp., 54%; in the data set on Phytophthora capsisi, 34%; in the data set with Physalospora baccae, 100%; in data set [1] it was 72%; in the data set with Glomerella cingulata, 89%. The inhibition of growth at 100 ppm in the data set on Pyricalaria oryzae was 95%; with Rhizoctonia solani, 66%; in the data set on Botry tris cinerea, 85%. Moreover, the “% controlled, Fu. mo.” value was determined as 46% in the data set with Fusarium moniliforme (50 ppm) and 65% in the data set with Fusarium moniliforme (100 ppm).

Regarding `C[Si](C)(C[Si](Cn1cncn1)(c1ccc(Cl)cc1)c1ccc(Cl)cc1)c1ccc(F)cc1` [2,2-bis(4-chlorophenyl)-4-(4-fluorophenyl)-4-methyl-2,4-disila-1-(1H-1,2,4-triazol-1-yl)pentane], the inhibition of growth at 50 ppm with Alternaria mali is 51%; in the data set with Rhizopus sp., 26%; with Phytophthora capsisi, 6%; in the data set on Physalospora baccae, 44%; in [1] it was 54%; with Glomerella cingulata it was 0%. The inhibition of growth at 50 ppm with Pyricalaria oryzae was 57%; with Rhizoctonia solani, 43%; with Botry tris cinerea, 37%. Moreover, the inhibition of growth at 100 ppm with Alternaria mali is 58%; in the data set with Rhizopus sp., 32%; in the data set with Phytophthora capsisi it was 9%; in the data set with Physalospora baccae, 48%; in [1], 61%; in the data set with Glomerella cingulata, 0%. Moreover, the figures for the inhibition of growth at 100 ppm in the data set on Pyricalaria oryzae, in the data set on Rhizoctonia solani and in the data set on Botry tris cinerea were 57%, 77% and 53%, respectively. Moreover, the “% controlled, Fu. mo.” value in the data set with Fusarium moniliforme (50 ppm) is reported as 41%; in the data set with Fusarium moniliforme (100 ppm), 55%.

As for `CCOc1ccc([Si](Cn2cncn2)(C[Si](C)(C)c2ccc(F)cc2)c2ccc(OCC)cc2)cc1` [2,2-bis(4-ethoxyphenyl)-4-(4-fluorophenyl)-4-methyl-2,4-disila-1-(1H-1,2,4-triazol-1-yl)pentane], the inhibition of growth at 50 ppm in the data set with Alternaria mali was 63%; with Rhizopus sp., 19%; in the data set with Phytophthora capsisi, 50%; in the data set with Physalospora baccae it was 53%; in data set [1], 74%; in the data set on Glomerella cingulata, 71%. The inhibition of growth at 50 ppm was found to be 100% in the data set on Pyricalaria oryzae, 78% in the data set on Rhizoctonia solani and 69% with Botry tris cinerea. For the same compound, the inhibition of growth at 100 ppm in the data set with Alternaria mali came to 72%; with Rhizopus sp., 43%; with Phytophthora capsisi it was 60%; in the data set with Physalospora baccae, 74%; in data set [1], 78%; in the data set with Glomerella cingulata it was 77%. Moreover, the figures for the inhibition of growth at 100 ppm with Pyricalaria oryzae, in the data set on Rhizoctonia solani and in the data set with Botry tris cinerea were 100%, 78% and 66%, respectively. Besides, the figures for the “% controlled, Fu. mo.” value in the data set on Fusarium moniliforme (50 ppm) and in the data set with Fusarium moniliforme (100 ppm) were 58% and 63%, respectively.

For the compound `C[Si](C)(C)C[Si](C)(Cn1cncn1)c1ccc(F)cc1` (stereo not drawn) [2-(4-fluorophenyl)-2,4,4-trimethyl-2,4-disila-1-(1H-1,2,4-triazol-1-yl)pentane], the inhibition of growth at 50 ppm in the data set with Alternaria mali turned out to be 78%; in the data set with Rhizopus sp. it was 49%; in the data set on Phytophthora capsisi it was 20%; in the data set on Physalospora baccae it was 56%; in data set [1], 69%; in the data set on Pyricalaria oryzae, 100%. Also, the inhibition of growth at 50 ppm was found to be 90% in the data set with Rhizoctonia solani and 81% with Botry tris cinerea. Also, the inhibition of growth at 100 ppm in the data set on Alternaria mali turned out to be 81%; in the data set on Rhizopus sp., 56%; in the data set on Phytophthora capsisi, 31%; with Physalospora baccae, 72%; in [1], 74%; in the data set with Pyricalaria oryzae, 100%. The inhibition of growth at 100 ppm in the data set on Rhizoctonia solani came to 90%; in the data set on Botry tris cinerea, 83%. Further, the “% controlled, Fu. mo.” value with Fusarium moniliforme (50 ppm) is reported as 62%; with Fusarium moniliforme (100 ppm) it was 66%.

For `C[Si](C)(C[Si](C)(Cn1cncn1)c1ccc(F)cc1)c1ccc(-c2ccccc2)cc1` (stereo not drawn) [2-(4-fluorophenyl)-4-(4-phenylphenyl)2,4-dimethyl-2,4-disila-1-(1H-1,2,4-triazol-1-yl)pentane], the inhibition of growth at 50 ppm in the data set on Alternaria mali amounted to 75%; in the data set on Rhizopus sp., 50%; in the data set with Physalospora baccae, 69%; in [1], 79%; in the data set on Glomerella cingulata, 87%; in the data set on Pyricalaria oryzae, 100%. Moreover, the values for the inhibition of growth at 50 ppm in the data set with Rhizoctonia solani and in the data set with Botry tris cinerea were 96% and 90%, respectively. In addition, the inhibition of growth at 100 ppm in the data set with Alternaria mali was determined as 79%; with Rhizopus sp., 50%; with Physalospora baccae it was 69%; in [1], 79%; in the data set on Glomerella cingulata it was 87%; in the data set with Pyricalaria oryzae, 100%. For the same compound, the results for the inhibition of growth at 100 ppm with Rhizoctonia solani and with Botry tris cinerea were 96% and 90%, respectively. Moreover, the “% controlled, Fu. mo.” value in the data set with Fusarium moniliforme (50 ppm) and with Fusarium moniliforme (100 ppm) was 46% throughout.

`C=CC[Si](Cn1cncn1)(C[Si](CC=C)(c1ccccc1)c1ccc(-c2ccccc2)cc1)c1ccc(F)cc1` (stereo not drawn) [4-(4-fluorophenyl)-6-phenyl-6-(4-phenylphenyl)-4,6-disila-4-(1H-1,2,4-triazol-1-ylmethyl)-1,8-nonadiene]: the inhibition of growth at 50 ppm with Alternaria mali is 72%; with Rhizopus sp. it was 50%; in the data set with Phytophthora capsisi, 70%; in the data set with Physalospora baccae, 65%; with Glomerella cingulata, 80%; in the data set with Pyricalaria oryzae, 100%. Besides, the inhibition of growth at 50 ppm in the data set with Rhizoctonia solani was found to be 60%; with Botry tris cinerea it was 90%. Besides, the inhibition of growth at 100 ppm with Alternaria mali was determined as 78%; in the data set on Rhizopus sp., 58%; with Phytophthora capsisi it was 72%; in the data set on Physalospora baccae, 69%; in the data set on Glomerella cingulata it was 86%; in the data set with Pyricalaria oryzae it was 100%. In addition, the inhibition of growth at 100 ppm in the data set with Rhizoctonia solani and in the data set on Botry tris cinerea was 90% each time. In addition, the results for the “% controlled, Fu. mo.” value in the data set with Fusarium moniliforme (50 ppm) and with Fusarium moniliforme (100 ppm) were 61% and 65%, respectively.

As for `C=CC[Si](CC=C)(Cn1cncn1)C[Si](CC=C)(c1ccc(F)cc1)c1ccc(-c2ccccc2)cc1` (stereo not drawn) [6-(4-fluorophenyl)-6-(4-phenylphenyl)-4-(2-propenyl)-4,6-disila-4-(1H-1,2,4-triazol-1-ylmethyl)-1,8-nonadiene], the inhibition of growth at 50 ppm in the data set on Alternaria mali was found to be 100%; in the data set with Rhizopus sp., 100%; with Phytophthora capsisi it was 40%; in the data set with Physalospora baccae, 100%; in data set [1], 100%; with Glomerella cingulata it was 100%. For the same compound, the inhibition of growth at 50 ppm in the data set on Pyricalaria oryzae, in the data set with Rhizoctonia solani and with Botry tris cinerea was 100% each time. In addition, the inhibition of growth at 100 ppm was 100% in the data set with Alternaria mali; 100% in the data set on Rhizopus sp.; 50% in the data set with Phytophthora capsisi; 100% in the data set with Physalospora baccae; 100% in data set [1]; 100% in the data set on Glomerella cingulata. Also, the inhibition of growth at 100 ppm in the data set with Pyricalaria oryzae, with Rhizoctonia solani and in the data set on Botry tris cinerea was 100% in each case.
